Assay: xn = mol fraction of the nth substance listed
Conditions: 273.15 K, Fluid (supercritical or subcritical phases), x1 = 0.97; for mass density: Vibrating tube method; for speed of sound: Frequency=5 MHz, Pulse-echo method

O=C=O [carbon dioxide] + CO
Conditions	mass density [kg/m3]	speed of sound [m/s]
5000 kPa	943.89	–
5025 kPa	944.05	–
5050 kPa	944.22	–
5075 kPa	944.38	–
5100 kPa	944.55	–
5125 kPa	944.71	–
5150 kPa	944.88	–
5175 kPa	945.05	–
5200 kPa	945.28	–
5225 kPa	945.45	–
5250 kPa	945.61	–
5275 kPa	945.83	–
5300 kPa	945.95	–
5325 kPa	946.18	–
5350 kPa	946.35	–
5375 kPa	946.51	–
5400 kPa	946.68	–
5425 kPa	946.88	–
5450 kPa	947.02	–
5475 kPa	947.19	–
5500 kPa	947.38	–
5525 kPa	947.55	–
5550 kPa	947.7	–
5575 kPa	947.84	–
5600 kPa	948	–
5625 kPa	948.22	–
5650 kPa	948.35	–
5675 kPa	948.48	–
5700 kPa	948.64	–
5725 kPa	948.81	–
5750 kPa	948.97	–
5775 kPa	949.13	–
5800 kPa	949.3	–
5825 kPa	949.41	–
5850 kPa	949.62	–
5875 kPa	949.74	–
5900 kPa	949.87	–
5925 kPa	950.03	–
5950 kPa	950.2	–
5975 kPa	950.35	–
6000 kPa	950.47	–
6020 kPa	–	581.6
6025 kPa	950.61	–
6040 kPa	–	581
6050 kPa	950.77	–
6075 kPa	950.93	–
6100 kPa	951.1	–
6125 kPa	951.26	–
6150 kPa	951.39	–
6175 kPa	951.59	–
6200 kPa	951.67	–
6225 kPa	951.86	–
6250 kPa	952.08	–
6275 kPa	952.24	–
6300 kPa	952.33	–
6325 kPa	952.49	–
6350 kPa	952.65	–
6375 kPa	952.82	–
6400 kPa	952.98	–
6425 kPa	953.14	–
6450 kPa	953.31	–
6475 kPa	953.47	–
6500 kPa	953.64	–
6525 kPa	953.73	–
6550 kPa	953.88	–
6575 kPa	954.04	–
6600 kPa	954.21	–
6625 kPa	954.37	–
6650 kPa	954.53	–
6675 kPa	954.7	–
6700 kPa	954.86	–
6725 kPa	955.03	–
6750 kPa	955.19	–
6775 kPa	955.35	–
6800 kPa	955.52	–
6825 kPa	955.67	–
6850 kPa	955.82	–
6875 kPa	955.96	–
6900 kPa	956.09	–
6925 kPa	956.25	–
6950 kPa	956.42	–
6975 kPa	956.58	–
7000 kPa	956.75	–
7025 kPa	956.91	–
7050 kPa	956.99	–
7075 kPa	957.15	–
7100 kPa	957.34	–
7125 kPa	957.48	–
7150 kPa	957.65	–
7175 kPa	957.81	–
7200 kPa	957.97	–
7225 kPa	958.14	–
7250 kPa	958.27	–
7275 kPa	958.38	–
7300 kPa	958.55	–
7325 kPa	958.71	–
7350 kPa	958.87	–
7375 kPa	959	–
7400 kPa	959.12	–
7425 kPa	959.28	–
7450 kPa	959.45	–
7475 kPa	959.61	–
7500 kPa	959.77	–
7525 kPa	959.94	–
7550 kPa	960.02	–
7575 kPa	960.18	–
7600 kPa	960.35	–
7625 kPa	960.51	–
7650 kPa	960.68	–
7675 kPa	960.84	–
7700 kPa	960.92	–
7725 kPa	961.08	–
7750 kPa	961.25	–
7775 kPa	961.41	–
7800 kPa	961.54	–
7825 kPa	961.66	–
7850 kPa	961.82	–
7875 kPa	961.98	–
7900 kPa	962.15	–
7925 kPa	962.23	–
7950 kPa	962.39	–
7975 kPa	962.56	–

Reference: the NIST ThermoML archive (doi:10.1016/j.jct.2016.03.026)
